Results on one compound are retold here after patent US20250155427A1, “CELLS […] TASTE RECEPTORS AND USES THEREOF” (Firmenich Incorporated, priority 2022, published 2025).

The target of the test is T1, human T1R1, a rat-human T1R3 chimera, and the promiscuous G-protein G16gust25 (UniProt Q7RTX1+Q923K1, A568E/A645S/A698V/A702T/A793V/A807V/C582S/C678S/E725V/E827G/F612A/F622V/F805L/I617V/I740A/I779T/I803L/K818R/L735F/L823M/L825Q/M644L/M706V/M729T/N675D/Q717H/Q757R/Q795R/Q831P/R632Q/R634S/S576L/S610P/S635P/S637R/S679G/T588V/T694M/T813A/V584A/V718M/V723A/V738A/V744T/V821L/W599R/W676R/W824R/Y598H/Y680C/Y794L).
T1 sequence (Q7RTX1 21-841): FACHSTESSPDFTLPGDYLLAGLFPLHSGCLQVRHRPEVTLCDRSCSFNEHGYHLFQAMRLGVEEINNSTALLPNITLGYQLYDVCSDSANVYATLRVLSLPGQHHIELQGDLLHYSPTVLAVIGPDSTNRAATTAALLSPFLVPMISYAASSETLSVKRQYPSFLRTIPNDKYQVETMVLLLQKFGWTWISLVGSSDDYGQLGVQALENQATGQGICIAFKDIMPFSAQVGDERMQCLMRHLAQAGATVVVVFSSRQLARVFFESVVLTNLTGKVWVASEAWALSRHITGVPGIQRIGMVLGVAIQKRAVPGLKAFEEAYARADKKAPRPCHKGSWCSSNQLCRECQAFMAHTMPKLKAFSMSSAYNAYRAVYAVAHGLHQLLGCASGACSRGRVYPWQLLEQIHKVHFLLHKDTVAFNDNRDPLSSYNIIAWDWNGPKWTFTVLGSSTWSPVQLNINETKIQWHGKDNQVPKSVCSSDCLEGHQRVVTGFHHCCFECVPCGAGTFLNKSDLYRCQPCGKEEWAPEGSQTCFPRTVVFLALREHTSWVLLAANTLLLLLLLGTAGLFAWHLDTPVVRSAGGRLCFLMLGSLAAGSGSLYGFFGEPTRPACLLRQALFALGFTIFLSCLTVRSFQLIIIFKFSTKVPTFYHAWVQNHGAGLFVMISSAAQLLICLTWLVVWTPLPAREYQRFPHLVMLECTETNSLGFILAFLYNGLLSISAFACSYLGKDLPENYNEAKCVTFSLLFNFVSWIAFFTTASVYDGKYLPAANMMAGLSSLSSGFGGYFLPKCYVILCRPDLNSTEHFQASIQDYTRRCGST
T1 sequence (Q923K1 with tags, fused parts or gaps A568E/S576L/C582S/V584A/T588V/Y598H/W599R/S610P/F612A/I617V/F622V/R632Q/R634S/S635P/S637R/M644L/A645S/N675D/W676R/C678S/S679G/Y680C/T694M/A698V/A702T/M706V/Q717H/V718M/V723A/E725V/M729T/L735F/V738A/I740A/V744T/Q757R/I779T/A793V/Y794L/Q795R/I803L/F805L/A807V/T813A/K818R/V821L/L823M/W824R/L825Q/E827G/Q831P limits assumed): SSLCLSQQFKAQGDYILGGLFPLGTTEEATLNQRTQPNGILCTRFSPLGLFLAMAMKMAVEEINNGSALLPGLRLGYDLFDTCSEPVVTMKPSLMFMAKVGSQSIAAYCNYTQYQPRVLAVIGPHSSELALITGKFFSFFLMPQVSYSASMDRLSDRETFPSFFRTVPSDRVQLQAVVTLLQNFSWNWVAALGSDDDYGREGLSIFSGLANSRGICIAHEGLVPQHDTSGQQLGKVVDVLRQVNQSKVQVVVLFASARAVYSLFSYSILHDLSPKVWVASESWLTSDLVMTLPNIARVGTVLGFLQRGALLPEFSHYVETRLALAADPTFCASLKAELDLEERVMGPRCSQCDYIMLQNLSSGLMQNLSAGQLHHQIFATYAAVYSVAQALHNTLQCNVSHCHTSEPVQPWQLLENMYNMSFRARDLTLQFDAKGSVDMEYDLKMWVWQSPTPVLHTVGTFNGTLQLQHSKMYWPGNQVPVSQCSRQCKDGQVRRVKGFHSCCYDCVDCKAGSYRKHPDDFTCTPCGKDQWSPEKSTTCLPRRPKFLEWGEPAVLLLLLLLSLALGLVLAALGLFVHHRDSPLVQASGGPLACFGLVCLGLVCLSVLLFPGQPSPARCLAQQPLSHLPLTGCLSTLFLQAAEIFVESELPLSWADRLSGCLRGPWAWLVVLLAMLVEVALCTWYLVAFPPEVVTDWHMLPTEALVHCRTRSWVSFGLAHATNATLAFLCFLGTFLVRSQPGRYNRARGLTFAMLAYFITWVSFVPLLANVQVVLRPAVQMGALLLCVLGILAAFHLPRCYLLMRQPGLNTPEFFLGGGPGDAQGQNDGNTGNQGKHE
The note with it: MSG dose response, U2OS cell line, FIG. 4A.

Description: The x-axis plots the log of MSG concentration, while the y-axis plots fold change in fluorescence of a Ca^2+-sensitive fluorescent dye in response to intracellular Ca^2+ concentration.
The x-axis plots the log of savory compound concentration, while the y-axis plots fold change in fluorescence of a Ca^2+-sensitive fluorescent dye in response to intracellular Ca^2+ concentration. FIG. 4A also indicates the EC50 for each compound.

In the case of `N[C@@H](CCC(=O)O)C(=O)[O-].[Na+]` [MSG, monosodium glutamate], the “fold change in fluorescence of a Ca^2+-sensitive fluorescent dye in response to intracellular Ca^2+ concentration” value is on record as “fluorescence detectably increases as MSG concentration increases”.
